In patent US5696151A, “Compounds useful for the inhibition of the replication of HIV-1 and HIV-1 mutants” (priority 1995, dated 1997):
Values after ≈ are worked out from the molar mass of the structure shown.

Legend:
Assay type in all cases: cell-based
HIV-1/Lys-138 = assay: Inhibition of HIV-1 induced syncytium formation in CEM cells, RT mutant 138-Lys; conditions: Human immunodeficiency virus 1, CCRF-CEM, 96 h, Table 2B, day 4, averages of 2 to 3 independent experiments, read-out: Antiviral Activity of Comparative Compounds EC50, 138-Lys
Source text: (§1) CEM cells were obtained from the American Tissue Cell Culture Collection (Rockville, Md.). HIV-1(IIIB) was originally obtained from the culture supernatant of persistently HIV-1-infected H9 cells and was provided by R. C. Gallo and M. Popovic (National Cancer Institute, National Institutes of Health, Bethesda, Md.). […] 67: 5353-5359 (1993); HIV-1/Lys-138 ("Lys-138") was selected for resistance against TSAO-m^3T as described in Balzarini et al, Virology 192: 246-253 (1993) and Balzarini et al, Proc. Nat. Acad. Sci. USA 90: 6952-6956 (1993); HIV-1/181-Cys ("181-Cys") was selected for resistance against pyridinone L-697,661 as described in Balzarini et al, Virology 192: 246-253 (1993); and HIV-1/188-His ("188-His") was selected for resistance against HEPT as described in Balzarini et al, Mol. Pharmocol. 44: 694-701 (1993). 188-His was then further converted to HIV-1/188-Leu "188-Leu") upon further passage in cell culture in the absence of the HEPT.
(§2) CEM cells were suspended at ≈300,000 cells per ml of culture medium and infected with approximately 100 CCID50 (CCID50 being the 50% cell culture infective dose) of HIV-1(IIIB) or one of the HIV-1 RT mutant strains described above. Then 100 μl of the infected cell suspensions was added to 200 μl microtiter plate wells containing 100 μl of appropriate serial (5-fold) dilutions of the test compounds. The inhibitory effect of the test compounds on HIV-1 induced syncytium formation in CEM cells was examined microscopically on day 4 post infection.

HIV-1/181-Cys = assay: Inhibition of HIV-1 induced syncytium formation in CEM cells, RT mutant 181-Cys; conditions: Human immunodeficiency virus 1, CCRF-CEM, 96 h, Table 2B, day 4, averages of 2 to 3 independent experiments, read-out: Antiviral Activity of Comparative Compounds EC50, 181-Cys
Source text: as §1, §2

HIV-1/106-Ala = assay: Inhibition of HIV-1 induced syncytium formation in CEM cells, RT mutant 106-Ala; conditions: Human immunodeficiency virus 1, CCRF-CEM, 96 h, Table 2B, day 4, averages of 2 to 3 independent experiments, read-out: Antiviral Activity of Comparative Compounds EC50, 106-Ala
Source text: as §1, §2

in vitro = conditions: human, cem cells, CC50 (50% cytostatic concentration), Table 2B; CEM cell proliferation; averages of 2 to 3 independent experiments
Source text: as §1
^b 50% cytostatic concentration (i.e., compound concentration require
to inhibit CEM cell proliferation by 50%)

HIV-1/100-Ile = assay: Inhibition of HIV-1 induced syncytium formation in CEM cells, RT mutant 100-Ile; conditions: Human immunodeficiency virus 1, CCRF-CEM, 96 h, Table 2B, day 4, averages of 2 to 3 independent experiments, read-out: Antiviral Activity of Comparative Compounds EC50, 100-Ile
Source text: as §1, §2

HIV-1(IIIB) = assay: Inhibition of HIV-1 induced syncytium formation in CEM cells, wild type; conditions: Human immunodeficiency virus 1, IIIB, CCRF-CEM, 96 h, Table 2B, WT = HIV-1(IIIB), day 4, averages of 2 to 3 independent experiments, read-out: Antiviral Activity of Comparative Compounds EC50, WT
Source text: as §1, §2

| Compound | EC50 (HIV-1/Lys-138) [µg/mL] | EC50 (HIV-1/181-Cys) [µg/mL] | EC50 (HIV-1/106-Ala) [µg/mL] | CC50 (in vitro) [µg/mL] | EC50 (HIV-1/100-Ile) [µg/mL] | EC50 (HIV-1(IIIB)) [µg/mL] |
| --- | --- | --- | --- | --- | --- | --- |
| CCC(CC)OC(=O)c1cc(NC(=S)c2ccoc2C)ccc1Cl [Compound 107] | 0.15 (≈ 0.41 µM) | 0.3 (≈ 0.82 µM) | 0.3 (≈ 0.82 µM) | 16 (≈ 43.7 µM) | 0.6 (≈ 1.64 µM) | 0.04 (≈ 0.109 µM) |
| CC(C)OC(=O)c1cc(NC(=O)c2ccccc2)ccc1Cl [Compound 62] | 5 (≈ 15.7 µM) | 5.5 (≈ 17.3 µM) | 5 (≈ 15.7 µM) | 6.2 (≈ 19.5 µM) | 3.5 (≈ 11 µM) | 0.4 (≈ 1.26 µM) |
| O=C(OC1CCCCC1)c1cc(NC(=S)c2ccsc2)ccc1Cl [Compound 79] | 0.07 (≈ 0.184 µM) | 0.08 (≈ 0.211 µM) | 0.07 (≈ 0.184 µM) | 4.1 (≈ 10.8 µM) | 0.85 (≈ 2.24 µM) | 0.03 (≈ 0.079 µM) |
| Cc1occc1C(=S)Nc1ccc(Cl)c(C=NOC2CCCC2)c1 [Compound 113] | 0.15 (≈ 0.413 µM) | 0.13 (≈ 0.358 µM) | 0.085 (≈ 0.234 µM) | 5.4 (≈ 14.9 µM) | 0.27 (≈ 0.744 µM) | 0.023 (≈ 0.0634 µM) |
| COc1ccccc1C(=S)Nc1ccc(Cl)c(C(=O)OC2CCCCC2)c1 [Compound 81] | 0.6 (≈ 1.49 µM) | 4.5 (≈ 11.1 µM) | 0.65 (≈ 1.61 µM) | 12 (≈ 29.7 µM) | 0.7 (≈ 1.73 µM) | 0.04 (≈ 0.099 µM) |
| CCC(CC)OC(=O)c1cc(NC(=O)c2ccccc2N)ccc1Cl [Compound 66] | > 10 | ≥ 10 | 9 (≈ 24.9 µM) | 25 (≈ 69.3 µM) | > 10 | 0.6 (≈ 1.66 µM) |
| Cc1ccsc1C(=S)Nc1ccc(Cl)c(C=NOC(C)C)c1 [Compound 95] | 0.16 (≈ 0.453 µM) | 0.5 (≈ 1.42 µM) | 0.08 (≈ 0.227 µM) | 13 (≈ 36.8 µM) | 0.65 (≈ 1.84 µM) | 0.008 (≈ 0.0227 µM) |
| O=C(OC1CCCCC1)c1cc(NC(=S)c2ccccc2F)ccc1Cl [Compound 65] | 0.09 (≈ 0.23 µM) | 0.25 (≈ 0.638 µM) | 0.26 (≈ 0.663 µM) | 19 (≈ 48.5 µM) | 0.3 (≈ 0.766 µM) | 0.04 (≈ 0.102 µM) |
| Cc1occc1C(=O)Nc1ccc(Cl)c(C(=O)OC(C)C2CC2)c1 (stereo not drawn) [Compound 54] | > 10 | 1 (≈ 2.88 µM) | 5 (≈ 14.4 µM) | 44 (≈ 127 µM) | > 10 | 0.6 (≈ 1.73 µM) |
| CC(C)ON=Cc1cc(NC(=S)c2ccccc2)ccc1Cl [Compound 96] | 0.17 (≈ 0.511 µM) | > 1 | 0.75 (≈ 2.25 µM) | 9 (≈ 27 µM) | > 1 | 0.05 (≈ 0.15 µM) |
| CC(C)C(OC(=O)c1cc(NC(=S)c2ccccc2F)ccc1Cl)C(C)C [Compound 98] | 0.7 (≈ 1.72 µM) | > 1 | 0.85 (≈ 2.08 µM) | 7.5 (≈ 18.4 µM) | > 1 | 0.06 (≈ 0.147 µM) |
| O=C(OC1CCCCC1)c1cc(NC(=S)c2ccccc2Cl)ccc1Cl [Compound 80] | 4 (≈ 9.8 µM) | 3 (≈ 7.35 µM) | 5 (≈ 12.2 µM) | 8.3 (≈ 20.3 µM) | 4 (≈ 9.8 µM) | 0.5 (≈ 1.22 µM) |
| Cc1occc1C(=S)Nc1ccc(Cl)c(C(=O)OC2CCCCC2)c1 [Compound 83] | 0.035 (≈ 0.0926 µM) | 0.07 (≈ 0.185 µM) | 0.057 (≈ 0.151 µM) | 9.7 (≈ 25.7 µM) | 0.17 (≈ 0.45 µM) | 0.004 (≈ 0.0106 µM) |
| CC(C)OC(=O)c1cc(NC(=S)c2ccccc2N)ccc1Cl [Compound 85] | 5.5 (≈ 15.8 µM) | 5.3 (≈ 15.2 µM) | 7.5 (≈ 21.5 µM) | 6.7 (≈ 19.2 µM) | 6 (≈ 17.2 µM) | 0.5 (≈ 1.43 µM) |
| Cc1occc1C(=S)Nc1ccc(Cl)c(C(=O)OC2CCCC2)c1 [Compound 109] | 0.035 (≈ 0.0962 µM) | 0.045 (≈ 0.124 µM) | 0.04 (≈ 0.11 µM) | 4.3 (≈ 11.8 µM) | 0.17 (≈ 0.467 µM) | 0.005 (≈ 0.0137 µM) |
| Cc1occc1C(=S)Nc1ccc(Cl)c(C=NOC(C)C)c1 [Compound 97] | 2 (≈ 5.94 µM) | 3.3 (≈ 9.8 µM) | ≥ 4 | 3.3 (≈ 9.8 µM) | 3.5 (≈ 10.4 µM) | 0.009 (≈ 0.0267 µM) |
